Patent publication US12514938B2, “Fibroblast activation protein targeting peptides” (PERSPECTIVE THERAPEUTICS, INC., priority 2023, dated 2026)
*1 amine or outer side, *2 acyl side, *3 side chain or, on linkers, in order; H or OH if unused. Where a SMILES comes first, the peptide text is derived from it. Bridges are numbered along the chain shown (N, C = ends). [ ]: non-standard residue; d: D form. The star is where a group is joined. X3 = NC(=O)CN1CCN(CC(=O)O)CCN(CC(=O)NCCOCCOCCC(=O)N[C@@H](Cc2ccccc2)C(=O)NC(CC(=O)[*:1])CC(=O)[*:2])CCN(CC(=O)O)CC1; X2 = NC(=O)CN1CCN(CC(=O)O)CCN(CC(=O)NCCOCCOCCC(=O)NCCSCc2cc(C[*:1])cc(C[*:2])c2)CCN(CC(=O)O)CC1; X1 = NC(=O)CN1CCN(CC(=O)O)CCN(CC(=O)*)CCN(CC(=O)O)CC1; 2Nal = N[C@@H](Cc1ccc2ccccc2c1)C(=O)O; mXylylene = c1cc(C[*:1])cc(C[*:2])c1; oXylylene = c1ccc(C[*:2])c(C[*:1])c1; Dap = NC[C@H](N)C(=O)O; PEG2 = NCCOCCOCCC(=O)O

Molecular target: T1, Human Fibroblast Activation Protein (FAP) (Homo sapiens, UniProt Q12884)
T1 sequence (Q12884 1-760): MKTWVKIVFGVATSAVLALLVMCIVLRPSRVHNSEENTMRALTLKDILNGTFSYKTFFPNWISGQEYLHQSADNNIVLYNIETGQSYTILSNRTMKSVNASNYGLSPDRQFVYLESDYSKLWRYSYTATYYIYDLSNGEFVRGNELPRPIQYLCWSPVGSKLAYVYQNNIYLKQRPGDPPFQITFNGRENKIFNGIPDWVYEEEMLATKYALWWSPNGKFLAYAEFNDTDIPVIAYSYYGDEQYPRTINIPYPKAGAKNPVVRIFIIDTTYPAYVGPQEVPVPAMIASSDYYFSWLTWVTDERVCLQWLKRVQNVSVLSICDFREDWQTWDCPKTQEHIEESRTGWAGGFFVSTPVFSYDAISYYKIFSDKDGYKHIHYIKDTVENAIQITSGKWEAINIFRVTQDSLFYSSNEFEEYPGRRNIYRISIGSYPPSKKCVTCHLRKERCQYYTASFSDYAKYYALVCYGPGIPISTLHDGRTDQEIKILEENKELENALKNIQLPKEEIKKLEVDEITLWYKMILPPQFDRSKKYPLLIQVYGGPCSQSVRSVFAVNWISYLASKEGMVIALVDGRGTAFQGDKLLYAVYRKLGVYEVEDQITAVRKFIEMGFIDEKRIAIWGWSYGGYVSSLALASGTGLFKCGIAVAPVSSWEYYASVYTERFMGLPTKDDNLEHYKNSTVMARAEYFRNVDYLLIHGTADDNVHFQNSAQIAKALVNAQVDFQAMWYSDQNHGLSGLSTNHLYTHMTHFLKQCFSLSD
Test: Enzyme inhibition assay against human FAP (substrate Z-GP-AMC), Example 1
Format: biochemical
Details: human FAP 5 ng/well, 50 μM Z-GP-AMC; Ki from IC50 by Cheng-Prusoff
Experimental: Binding Affinity Against Human Fibroblast Activation Protein (FAP)
An enzyme inhibition assay was performed to determine IC50 values and then the Cheng-Prusoff equation used to calculate the Ki given a known Km of the substrate Z-GP-AMC for FAP. To perform the assay, FAP (5 ng/well) and the test peptide at varying concentrations (i.e. 10^−6 to 10^−12) were incubated in a black 96-well plate for 10 minutes at RT on a shaker plate. Then, the substrate Z-GP-AMC was added to give a final concentration of 50 μM. The total reaction volume per well was 100 μL The reaction was allowed to incubate at RT on a shaker plate for 1 hour protected from light, and then fluorescence read with a BioTek Synergy LX plate reader at an ex/em (360/40 and 460/40). Experiments were performed in at least duplicate, and controls of buffer only, buffer and FAP enzyme, and buffer with substrate and FAP enzyme only were included for comparison. The buffer used for the assay was 50 mM Tris-HCl, 1M NaCl, and 1 mg/mL BSA, pH=7.5. Data was plotted in GraphPad Prism and non-linear regression used to calculate IC50 values. The compounds tested and Ki values of each were as follows: […]

Ki [nM] | Compound
13.6 | CC(=O)N[C@@H](CO)C(=O)N[C@H]1CSCc2ccccc2CSC[C@@H](C(N)=O)NC(=O)[C@H](Cc2c[nH]c3ccccc23)NC(=O)[C@H](Cc2ccc(O)cc2)NC(=O)[C@H](CCC(N)=O)NC(=O)[C@H](CCC(=O)O)NC(=O)[C@H](Cc2ccccc2)NC(=O)[C@@H]2CCCN2C(=O)[C@H]([C@@H](C)O)NC1=O [VMT-FAP-2-29, Ac-S[C(oXdB)TPFEQYWC]-NH2] (Ac-SCTPFEQYWC-NH2; linker 2-10 via oXylylene)
0.04 | C[C@@H](O)[C@@H]1NC(=O)[C@@H](NC(=O)[C@H](CO)NC(=O)CCOCCOCCNC(=O)CN2CCN(CC(=O)O)CCN(CC(N)=O)CCN(CC(=O)O)CC2)CSCc2ccccc2CSC[C@@H](C(N)=O)NC(=O)[C@H](Cc2c[nH]c3ccccc23)NC(=O)[C@H](Cc2c[nH]c3ccccc23)NC(=O)[C@H](CCC(N)=O)NC(=O)[C@H](CCC(=O)O)NC(=O)[C@H](Cc2ccccc2)NC(=O)[C@@H]2CCCN2C1=O [VMT-FAP-2-30, PSC-PEG2-S-[C(oXdB)TPFEQWWC]-NH2] ({X1-PEG2}-SCTPFEQWWC-NH2; linker 2-10 via oXylylene)
1.26 | CC(=O)N[C@@H](CO)C(=O)N[C@H]1CNC(=O)CC(NC(=O)[C@H](Cc2ccccc2)NC(=O)CCOCCOCCNC(=O)CN2CCN(CC(=O)O)CCN(CC(N)=O)CCN(CC(=O)O)CC2)CC(=O)NC[C@@H](C(N)=O)NC(=O)[C@H](Cc2c[nH]c3ccccc23)NC(=O)[C@H](Cc2c[nH]c3ccccc23)NC(=O)[C@H](CCC(N)=O)NC(=O)[C@H](CCC(=O)O)NC(=O)[C@H](Cc2ccccc2)NC(=O)[C@@H]2CCCN2C(=O)[C@H]([C@@H](C)O)NC1=O (stereo partly drawn) [VMT-FAP-2-33, Ac-S-[Dap(bGlu(F-PEG2-PSC))TPFEQWWDap]-NH2] (Ac-S[Dap]TPFEQWW[Dap]-NH2; linker 2-10 via X3 (inferred))
0.76 | C[C@@H](O)[C@@H]1NC(=O)[C@@H](NC(=O)CCOCCOCCNC(=O)CN2CCN(CC(=O)O)CCN(CC(N)=O)CCN(CC(=O)O)CC2)CSCc2ccccc2CSC[C@@H](C(N)=O)NC(=O)[C@H](Cc2c[nH]c3ccccc23)NC(=O)[C@H](Cc2c[nH]c3ccccc23)NC(=O)[C@H](CCC(N)=O)NC(=O)[C@H](CCC(=O)O)NC(=O)[C@H](Cc2ccccc2)NC(=O)[C@@H]2CCCN2C1=O [VMT-FAP-2-36, PSC-PEG2-[C(oXdB)TPFEQWWC]-NH2] ({X1-PEG2}-CTPFEQWWC-NH2; linker 1-9 via oXylylene)
0.67 | C[C@@H](O)[C@@H]1NC(=O)[C@@H](NC(=O)[C@H](CO)NC(=O)[C@H](Cc2ccccc2)NC(=O)CCOCCOCCNC(=O)CN2CCN(CC(=O)O)CCN(CC(N)=O)CCN(CC(=O)O)CC2)CSCc2ccccc2CSC[C@@H](C(N)=O)NC(=O)[C@H](Cc2c[nH]c3ccccc23)NC(=O)[C@H](Cc2c[nH]c3ccccc23)NC(=O)[C@H](CCC(N)=O)NC(=O)[C@H](CCC(=O)O)NC(=O)[C@H](Cc2ccccc2)NC(=O)[C@@H]2CCCN2C1=O [VMT-FAP-2-39, PSC-PEG2-F-S-[C(oXdB)TPFEQWWC]-NH2] ({X1-PEG2}-FSCTPFEQWWC-NH2; linker 3-11 via oXylylene)
1.27 | CC(=O)N[C@H]1CSCc2ccccc2CSC[C@@H](C(N)=O)NC(=O)[C@H](Cc2c[nH]c3ccccc23)NC(=O)[C@H](Cc2c[nH]c3ccccc23)NC(=O)[C@H](CCC(N)=O)NC(=O)[C@H](CCC(=O)O)NC(=O)[C@H](Cc2ccccc2)NC(=O)[C@@H]2CCCN2C(=O)[C@H]([C@@H](C)O)NC1=O [VMT-FAP-2-40, Ac-[C(oXdB)TPFEQWWC]-NH2] (Ac-CTPFEQWWC-NH2; linker 1-9 via oXylylene)
0.19 | C[C@@H](O)[C@@H]1NC(=O)[C@@H](NC(=O)[C@H](CC(=O)O)NC(=O)CCOCCOCCNC(=O)CN2CCN(CC(=O)O)CCN(CC(N)=O)CCN(CC(=O)O)CC2)CSCc2ccccc2CSC[C@@H](C(N)=O)NC(=O)[C@H](Cc2c[nH]c3ccccc23)NC(=O)[C@H](Cc2c[nH]c3ccccc23)NC(=O)[C@H](CCC(N)=O)NC(=O)[C@H](CCC(=O)O)NC(=O)[C@H](Cc2ccccc2)NC(=O)[C@@H]2CCCN2C1=O [VMT-FAP-2-41, PSC-PEG2-D-[C(oXdB)TPFEQWWC]-NH2] ({X1-PEG2}-DCTPFEQWWC-NH2; linker 2-10 via oXylylene)
0.29 | C[C@@H](O)[C@@H]1NC(=O)[C@@H](NC(=O)[C@H](CO)NC(=O)CCOCCOCCNC(=O)CN2CCN(CC(=O)O)CCN(CC(N)=O)CCN(CC(=O)O)CC2)CSCc2ccccc2CSC[C@@H](C(N)=O)NC(=O)[C@H](Cc2c[nH]c3ccccc23)NC(=O)[C@H](Cc2c[nH]c3ccccc23)NC(=O)[C@H](CCC(N)=O)NC(=O)[C@H](CCC(=O)O)NC(=O)[C@H](Cc2c[nH]c3ccccc23)NC(=O)[C@@H]2CCCN2C1=O [VMT-FAP-2-42, PSC-PEG2-S-[C(oXdB)TPWEQWWC]-NH2] ({X1-PEG2}-SCTPWEQWWC-NH2; linker 2-10 via oXylylene)
0.07 | C[C@@H](O)[C@@H]1NC(=O)[C@@H](NC(=O)[C@H](CO)NC(=O)CCOCCOCCNC(=O)CN2CCN(CC(=O)O)CCN(CC(N)=O)CCN(CC(=O)O)CC2)CSCc2ccccc2CSC[C@@H](C(N)=O)NC(=O)[C@H](Cc2c[nH]c3ccccc23)NC(=O)[C@H](Cc2c[nH]c3ccccc23)NC(=O)[C@H](CCC(=O)O)NC(=O)[C@H](CCC(=O)O)NC(=O)[C@H](Cc2ccccc2)NC(=O)[C@@H]2CCCN2C1=O [VMT-FAP-2-43, PSC-PEG2-S-[C(oXdB)TPFEEWWC]-NH2] ({X1-PEG2}-SCTPFEEWWC-NH2; linker 2-10 via oXylylene)
0.35 | C[C@@H](O)[C@@H]1NC(=O)[C@@H](NC(=O)[C@H](CO)NC(=O)CCOCCOCCNC(=O)CN2CCN(CC(=O)O)CCN(CC(N)=O)CCN(CC(=O)O)CC2)CSCc2cccc(c2)CSC[C@@H](C(N)=O)NC(=O)[C@H](Cc2c[nH]c3ccccc23)NC(=O)[C@H](Cc2c[nH]c3ccccc23)NC(=O)[C@H](CCC(N)=O)NC(=O)[C@H](CCC(=O)O)NC(=O)[C@H](Cc2c[nH]c3ccccc23)NC(=O)[C@@H]2CCCN2C1=O [VMT-FAP-2-48, PSC-PEG2-S-[C(mXdB)TPWEQWWC]-NH2] ({X1-PEG2}-SCTPWEQWWC-NH2; linker 2-10 via mXylylene)
0.28 | CC(=O)N[C@H]1CSCc2cc(CSCCNC(=O)CCOCCOCCNC(=O)CN3CCN(CC(=O)O)CCN(CC(N)=O)CCN(CC(=O)O)CC3)cc(c2)CSC[C@@H](C(N)=O)NC(=O)[C@H](Cc2c[nH]c3ccccc23)NC(=O)[C@H](Cc2c[nH]c3ccccc23)NC(=O)[C@H](CCC(N)=O)NC(=O)[C@H](CCC(=O)O)NC(=O)[C@H](Cc2c[nH]c3ccccc23)NC(=O)[C@@H]2CCCN2C(=O)[C@H]([C@@H](C)O)NC1=O [VMT-FAP-2-51, Ac-[C(mXtB(CA-PEG2-PSC))TPWEQWWC]-NH2] (Ac-CTPWEQWWC-NH2; linker 1-9 via X2)
0.34 | C[C@@H](O)[C@@H]1NC(=O)[C@@H](NC(=O)[C@H](CO)NC(=O)CCOCCOCCNC(=O)CN2CCN(CC(=O)O)CCN(CC(N)=O)CCN(CC(=O)O)CC2)CSCc2ccccc2CSC[C@@H](C(N)=O)NC(=O)[C@H](Cc2c[nH]c3ccccc23)NC(=O)[C@H](Cc2c[nH]c3ccccc23)NC(=O)[C@H](CCC(N)=O)NC(=O)[C@H](CCC(=O)O)NC(=O)[C@H](Cc2ccc3ccccc3c2)NC(=O)[C@@H]2CCCN2C1=O [VMT-FAP-2-53, PSC-PEG2-[SC(oXdB)TP2-NalEQWWC]-NH2] ({X1-PEG2}-SCTP[2Nal]EQWWC-NH2; linker 2-10 via oXylylene)
